The nature of the data set: Inhibition of CYP1A2 (unknown origin).

Data on two molecules can be found in BindingDB's records for doi:10.1016/j.bmcl.2018.10.050 (Vanderbilt University, 2019).

Usually IC50 stands for the midpoint of a concentration-inhibition curve. The low end stands for inhibition by little substance, the high end for a need for much substance.

Molecule `FC(F)(F)c1nccc2cc(Nc3n[nH]c4nccnc34)ccc12` [N-(1H-pyrazolo[3,4-b]pyrazin-3-yl)-1-(trifluoromethyl) isoquinolin-6-amine] displayed an IC50 of less than 500 µM.

`FC(F)(F)c1nccc2cc(Nc3n[nH]c4cccnc34)ccc12` [N-(1H-pyrazolo[4,3-b]pyridin-3-yl)-1-(trifluoromethyl) isoquinolin-6-amine]: the IC50 was less than 500 µM.
